Laboratory results from PubChem BioAssay AID540268 (Broad Institute, 2011).
Active and inactive are the calls of the source. How the calls were made is not given here.

Experiment: growth inhibition of yeast carrying parasite Hsp90, dose response, anti-malarial Hsp90 inhibitor project, ATP luminescence, 48 h, cherry-picked samples (AID 540268);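 on activity change, negative = inhibition: 0% = neutral control wells and -100% = positive control wells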
Conditions: yeast expressing the parasite Hsp90, ATP luminescence; for activity change, negative = inhibition: at 26 µM (top of the series)

SMILES	AC50 [µM]	activity change, negative = inhibition
COc1ccc2c(c1)[C@H]1[C@H](CO2)[C@H](c2ccccc2)[C@]2(C)C(=O)Nc3ccc(Br)cc3C(=O)N12	1.74	–
CCCc1cc(=O)oc2cc(OCc3ccc(C(=O)O)cc3)ccc12	2.73	–
Cc1ccc(NC(=O)c2ccc(Cl)c(N3C(=O)C=CC3=O)c2)cc1	2.38	–
CC1=NOC(=O)/C1=C/c1ccc(-c2ccc(Cl)cc2)o1	2.43	–
Oc1ccccc1-c1nc(NC2CCCC2)c2ccccc2n1	4.26	–
Oc1c(C(Nc2cccc(C(F)(F)F)c2)c2ccncc2)ccc2cccnc12 (stereo not given)	5.15	–
O=C(OCC(=O)N1CCN(C(=O)c2ccco2)CC1)c1cc(-c2cccc(Br)c2)nc2ccccc12	4.39	–
CCCC(=O)NC(c1ccc(C)cc1)c1ccc2cccnc2c1O (stereo not given)	3.4	–
CCOC(=O)c1c(C)oc2c1c(C(c1cccnc1)N1CCOCC1)c(O)c1ccccc12 (stereo not given)	5.35	–
COc1cc(/C=N/O)cc(Br)c1OCc1cccc(Cl)c1	8.2	–
Cc1ccc(C(=O)Sc2cccccc2=O)cc1	6.77	–
O=C(/C=C/c1ccccc1[N+](=O)[O-])c1ccccc1Br	3.2	–
O=c1cc(-c2ccccc2)cc(-c2ccccc2)n1O	1.17	–
COc1ccc(SN=C2C(C)=CC(=O)C=C2C)cc1	5.7	–
COc1cccc(F)c1C(C[N+](=O)[O-])c1c(N)n(C)c(=O)n(C)c1=O (stereo not given)	4.3	–
CCC(=O)OCOc1ccc(/C=C2/CCC(CN(C)C)C2=O)cc1 (stereo not given)	2.89	–
CC(=NNC(=S)N1CCN(C2CCCCCC2)CC1)c1ccccn1	3.95	–
COC(=O)C1CN(C#N)N(c2ccc(Cl)cc2)C12c1ccccc1-c1ccccc12 (stereo not given)	4.07	–
CCCCCCCCCCCCCCCCn1cc[n+](CC(C)=O)c1	4.39	–
CC1(C)C=Cc2c(ccc3c2OC[C@H](c2ccc(O)cc2O)C3)O1	4.6	–
C/C(=N\NC(=O)c1cc2ccccc2cc1O)c1ccccn1	8.31	–
O=C(/C=C/c1cccc([N+](=O)[O-])c1)c1cccs1	2.63	–
COc1ccc(-c2sc3ccccc3c2/C=C/c2ccncc2)cc1	4.84	–

SMILES	AC50 [µM]	activity change, negative = inhibition
O=c1c(Br)ccc(Br)cc1Br	0.38	–
COc1cc(/C=C/C(=O)c2ccc([N+](=O)[O-])o2)ccc1O	2.02	–
Oc1c(C(Nc2ccccn2)c2cccnc2)cc(Cl)c2cccnc12 (stereo not given)	8.09	–
Cc1c(Cl)cccc1N=Cc1ccc([N+](=O)[O-])s1	8.3	–
CCCCCCCCCC[N+](C)(C)CC/C=C1/c2ccccc2Sc2ccc(Cl)cc21	6.32	–
O=C(O)c1ccc(N/N=C/c2ccc(-c3ccccc3)cc2)cc1	4.22	–
COc1ccc(C(=O)/C=C/c2ccc(-c3ccccc3)cc2)cc1CSCC(=O)O	6.01	–
O=C(CCSc1nnc(-c2ccncc2)o1)Nc1ccc(Cl)cc1	2.87	–
CCCC1COC(Cn2cncn2)(c2ccc(C)cc2)O1 (stereo not given)	0.628	–
O=C(C=Cc1cccc(O)c1)c1ccccc1O	1.89	–
Cc1ccc(S(=O)(=O)N(C(=O)c2ccncc2)c2ccc(OC(=O)c3ccncc3)cc2)cc1	0.863	–
CCc1ccc(NC(=O)c2nc(S(=O)(=O)Cc3ccccc3)ncc2Cl)cc1	3.5	–
O=c1c2ccccc2nnn1CSc1nnc(COc2ccc(Cl)cc2)n1Cc1ccco1	3.31	–
COc1ccc2c(c1)OC[C@H]1[C@H]2N2C(=O)c3cc(C)ccc3NC(=O)[C@@]2(C)[C@H]1c1ccccc1	0.988	–
CCC(=O)NC(c1cccs1)c1ccc2cccnc2c1O (stereo not given)	7.69	–
O=C1/C(=C\c2cccc(O)c2O)SC(=S)N1Cc1ccccc1	9.6	–
O=[N+]([O-])c1cc(Cl)c(O)c2ncccc12	1.81	–
CCC(C)Nc1ccc(NC(C)CC)cc1 (stereo not given)	3.26	–
Cc1cc(-c2n[nH]c(=S)n2/N=C/C(Br)=C/c2ccccc2)n[nH]1	15	–
CCCC(=O)NC(c1ccc(OC)c(OC)c1)c1cc(Cl)c2cccnc2c1O (stereo not given)	6.12	–
C/C(=N\Nc1ncnc2sc(C)c(C)c12)c1ccccn1	2.01	–
O=C(Nc1ccccc1)Oc1cccc2cccnc12	2.12	–
Cc1cccc2cc(CN(Cc3nnnn3C3CCCCC3)C3CCCC3)c3nnnn3c12	2.2	–

SMILES	AC50 [µM]	activity change, negative = inhibition
COc1ccc(C(C#N)=C2C=CC(=NO)C=C2)cc1	4.56	–
COC(=O)C1=C(C(=O)OC)SC2(S1)C(C(=O)OC)=C(C(=O)OC)Sc1c2ssc1=O	8.87	–
Cc1cccc(N2CCN(S(=O)(=O)c3c(C)noc3/C=C/N(C)C)CC2)c1C	8.39	–
Cc1cc(C)c2c(N=NN3CCOCC3)[nH]nc2n1	7.65	–
CC(C)(C)c1cc(NCc2ccccn2)n2ncc(-c3ccccc3)c2n1	1.49	–
Cc1c(N=Cc2cc(Br)cc(Br)c2O)cccc1C(=O)O	3.06	–
CCN(CC)N=Nc1[nH]nc2nc(C)cc(C)c12	4.33	–
O=C(Nc1ccccc1N1CCOCC1)c1ccc([N+](=O)[O-])o1	4.41	–
Cc1nn2c(NCc3ccccn3)cc(C(C)(C)C)nc2c1-c1ccccc1	3.02	–
COc1ccc2sc(-c3ccccc3OC)c(-c3ccc(O)cc3)c2c1	8.46	–
COc1cc(N=c2ssnc2Cl)c(OC)cc1Cl	–	-119% (inactive)
CCCc1ccc(Oc2cn[nH]c2-c2ccc(O)c(C)c2O)cc1	0.408	–
Cc1ccc(C(C[N+](=O)[O-])Sc2ccc(N)cc2)cc1 (stereo not given)	6.83	–
O=C(/C=C/c1cc(Br)ccc1O)c1ccco1	5.35	–
O=C(Nc1nc(-c2cccs2)cs1)c1ccc([N+](=O)[O-])o1	5.69	–
Oc1c(Br)cc(Br)cc1C=Nc1cccnc1	5.8	–
Clc1ccc(CSC(Cn2ccnc2)c2ccc(Cl)cc2Cl)cc1 (stereo not given)	0.576	–
O=C(O)c1cccc2c1Cc1cc([N+](=O)[O-])ccc1-2	0.808	–
CCCCCCCCCCCCCCCC[n+]1ccc(C(N)=O)cc1	7.6	–
CC(C)(C)c1cc(-c2nc(N)nc(N)n2)c(O)c(C(C)(C)C)c1	15.1	–
Oc1cccc2ccc(/C=C/c3ccccc3Br)nc12	16.9	–
O=C(O)c1cccc(NN=C2c3ccccc3-c3ccccc32)c1	5.71	–
c1ccc(-c2cccc(-c3ccccn3)n2)nc1	1.03	–

SMILES	AC50 [µM]	activity change, negative = inhibition
O=C(Nc1nc(-c2ccco2)c(-c2ccco2)s1)c1ccco1	6.08	–
COC[C@H]1OC(=O)c2coc3c2[C@@]1(C)C1=C(C3=O)[C@@H]2CCC(=O)[C@@]2(C)C[C@H]1OC(C)=O	0.215	–
O=C(/C=C/N1CCOCC1)c1ccc(-c2ccccc2)cc1	4.23	–
Clc1ccccc1CN(Cc1ccco1)Cc1nnnn1C1CCCC1	9.49	–
CCCCCCC(=O)N(O)C1CC(=O)N(c2ccc(Br)cc2)C1=O (stereo not given)	2.22	–
N#C/C(=C\c1cccc([N+](=O)[O-])c1)C(=O)NCc1ccc(Cl)cc1	6.75	–
CCOC(=O)/C=C/C(=O)Nc1cccc([N+](=O)[O-])c1	3.5	–
COc1ccccc1NS(=O)(=O)c1cc(C(=O)N2CC(C)CC(C)C2)ccc1C (stereo not given)	5.81	–
Oc1c(Br)cc(Br)cc1C=NCc1ccccc1	7.51	–
CCCCCCCCCCCCCCCC[N+](C)(C)CCN(Cc1ccc(OC)cc1)c1ncccn1	4.14	–
CCOc1ccc(Br)cc1C1=NN(C(C)=O)C(c2ccc([N+](=O)[O-])s2)O1 (stereo not given)	8.12	–
C[C@@]12C(=O)Nc3ccc(Br)cc3C(=O)N1[C@H]1c3ccccc3OC[C@@H]1[C@@H]2c1ccccc1	0.404	–
O=C(O)c1cccc2c1Cc1cc(Cl)ccc1-2	1.13	–
Cc1ccc(/C=C2/NC(=O)N(Cc3ccc(Br)cc3)C2=O)o1	–	47.3% (inactive)
OCCOCCn1c(C2CCCN2c2nc(-c3ccc(F)cc3)cs2)nc2cc(C(F)(F)F)ccc21 (stereo not given)	7.92	–
CC1CCN(C(CC(=O)c2ccccc2)C(=O)c2ccccc2)CC1 (stereo not given)	3.28	–
CCCC(=O)NC(c1ccco1)c1cc(Cl)c2cccnc2c1O (stereo not given)	4.36	–
O=C1NC(=S)S/C1=C\C=C\c1ccc([N+](=O)[O-])o1	2.45	–
O=C(OCC(=O)N1CCN(C(=O)c2ccco2)CC1)c1cc(-c2ccccc2)nc2ccccc12	3.6	–
CC(C)(C)SCCNC(=O)c1ccc(Cl)c([N+](=O)[O-])c1	4.37	–
C=C1C(=O)C23CCC4C(C)(C(=O)OC)CCCC4(C)C2CCC1(O)C3 (stereo not given)	1.54	–
COc1ccc(S(=O)(=O)NC2CC3CCC2C3)cc1Br (stereo not given)	3.52	–
COc1ccc(OC)c2c1C(=O)C(Cl)=C(Cl)C2=O	1.64	–

SMILES	AC50 [µM]	activity change, negative = inhibition
Cc1ccc(N2C(=O)C3C4C=CC(CNC(=S)N5CCN(c6ccccn6)CC5)(O4)C3C2=O)cc1 (stereo not given)	8.31	–
O=C(CC(n1cncn1)C(Cl)(Cl)Cl)c1ccc([N+](=O)[O-])cc1 (stereo not given)	4.42	–
COc1ccc(NC2CCN(C3CC(=O)N(c4ccc(F)c(Cl)c4)C3=O)CC2)cc1 (stereo not given)	2.61	–
O=C1/C(=C\c2ccc(O)c(O)c2)SC(=S)N1Cc1ccccc1	4.26	–
O=[N+]([O-])c1ccc(C=Nc2cccc3ccccc23)s1	8.33	–
O=C(N/N=C/c1cc2c3c(c1O)CCCN3CCC2)c1ccccc1O	1.42	–
CC(C)Oc1ccc(C(=O)/C=C2/C(=O)Nc3ccccc32)cc1	2.62	–
COc1ccc(N2CCN(c3c(S(=O)(=O)c4ccccc4)cnc4ccc(OC)cc34)CC2)cc1	3.9	–
COc1cc(C#Cc2c(-c3cncn3C)n(C)c3ccc(-c4ccc(OC)nc4)cc23)cc(OC)c1	4.74	–
Cc1nnc(C)n1/N=C/c1cc(Br)cc(Br)c1O	4.35	–
Clc1ccc(COC(Cn2ccnc2)c2ccc(Cl)cc2Cl)c(Cl)c1 (stereo not given)	< 0.195	–
COC(=O)C1CCN(C2CC(=O)N(c3cc(C)cc(C)c3)C2=O)CC1 (stereo not given)	7.68	–
CC1(C)N=C(SCC(=O)Nc2ccc(Cl)cc2)C(c2ccc(Cl)cc2)=N1	8.73	–
COc1ccccc1-c1sc2ccccc2c1-c1ccc(O)cc1	3.78	–
Cc1cc(C(C)(C)CC(C)(C)C)ccc1OCCOCC[N+](C)(C)Cc1ccccc1	7.8	–
O=C1C=CC(=O)N1CCNc1ncc(C(F)(F)F)cc1Cl	0.674	–
O=C(/C=C/c1ccc([N+](=O)[O-])cc1)c1ccccc(=O)c1O	1.04	–
O=C(c1ccccc1)c1cc(Cl)ccc1N1C(=O)C=CC1=O	0.432	–
O=C(O)c1cn(-c2ccc(N3CCCC3)c(F)c2)c2c(F)c(F)c(F)cc2c1=O	4.36	–
O=C1C=C(c2ccc(Cl)cc2)C(=O)N1Nc1ccccc1	< 0.195	–
CCCCCCCCCCCCCCCC[N+](C)(C)CC	4.04	–
O=[N+]([O-])c1ccc(O)c2ncccc12	1.66	–
Oc1c(Cl)cc(Cl)c(Cl)c1Cc1c(O)c(Cl)cc(Cl)c1Cl	0.676	–
